Measured values taken from patent US10626095B2, “Cyanotriazole compounds” (OTSUKA PHARMACEUTICAL CO., LTD., priority 2013, dated 2020).

Columns and labels:
[1] = test system: Zucker Diabetic Fatty (ZDF) rat; assay: Meal load test in type 2 diabetic model rats (postprandial blood glucose); format: in vivo; set-up: unit not given here; conditions: ZDF rats fasted overnight, blood glucose one hour after meal loading (50 kcal/kg)
Procedure: Effects on Type 2 Diabetes: Meal Load Test
To evaluate whether a cyanotriazol compound improves diabetes or not, especially related to postprandial blood glucose, meal load test was performed using one of type 2 diabetic model rats, the Zucker Diabetic Fatty (ZDF) rat (Charles river, Japan). About 24 animals fasted overnight (17 h) were taken blood samples from the tail veins, and measured blood glucose levels (Pre BG) and body weights (BW). Proper animals were selected and divided into […] (n=6) based on the Pre BG and BW using SAS Statistical Analysis System (SAS institute Japan Ltd. Release 9.1). The compounds to be tested (10 or 30 mg/kg body weight in 5% Arabia gum) or Arabia gum solution only (vehicle group) were orally administrated via gavage two hours prior to or just before meal loading (50 kcal/kg body weight). The meal suspension was prepared by mixing purified AIN-93G (Norsan Corp, Yokohama, Japan) and distilled water (2:3, w/v). One-hour after meal loading, blood glucose (BG1h) of each animal was measured. Effectiveness of each compound was shown by ? BG1h (BG1h difference between compound group and vehicle group). Although a set of 24 animals was used several times (from 13 weeks to 21 weeks of age), at least a one-week interval was placed from one to another test.

[2] = test system: NaCT-CHO (CHO cells stably expressing human NaCT); assay: Assay of the citric acid cycle activation ([1,5-14C]-citric acid, diffusion of [14C]-CO2); format: cell-based; conditions: 1 hour incubation at 37° C. with [1,5-14C]-citric acid
Procedure, shortened: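 NaCT-CHO cells (pME-CHO empty-vector cells for non-specific counts) were incubated 1 h at 37 °C in Na+-containing HEPES-Tris pH 7.4 with compound plus an equal volume of 0.4 mM [1,5-14C]-citric acid solution. Residual cell radioactivity was counted, [14C]-CO2 diffusion was taken as (Total−R)/(Total−NS)×100%, and EC50 was derived by regression.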

| Compound | BG1h (BG1h difference between compound group and vehicle group) ([1]; oral 10 mg/kg in 5% Arabia gum) | EC50 [2] [µM] | BG1h (BG1h difference between compound group and vehicle group) ([1]; oral 30 mg/kg in 5% Arabia gum) |
| --- | --- | --- | --- |
| Cc1cc(-c2ccc(C(F)(F)F)nc2)cc(-c2nn[nH]c2C#N)c1 [Example 11, 5-[3-methyl-5-(6-trifluoromethyl-pyridin-3-yl)-phenyl]-3H-[1,2,3]triazole-4-carbonitrile] | −93.2 | 0.67 | – |
| N#Cc1[nH]nnc1-c1cc(-c2cccc(C(F)(F)F)n2)cc(C(F)(F)F)c1 [Example 14, 5-[3-trifluoromethyl-5-(6-trifluoromethyl-pyridin-2-yl)-phenyl]-3H-[1,2,3]triazole-4-carbonitrile] | −79.2 | 0.5 | – |
| COc1cc(-c2cc(C(F)(F)F)ccn2)cc(-c2nn[nH]c2C#N)c1 [Example 15, 5-[3-methoxy-5-(4-trifluoromethyl-pyridin-2-yl)-phenyl]-3H-[1,2,3]triazole-4-carbonitrile] | −50.5 | 0.49 | – |
| N#Cc1[nH]nnc1-c1cccc(-c2nccc(C(F)(F)F)n2)c1 [Example 21, 5-[3-(4-trifluoromethyl-pyrimidin-2-yl)-phenyl]-3H-[1,2,3]triazole-4-carbonitrile] | −95.7 | 0.77 | – |
| Cc1cc(-c2nccc(C(F)(F)F)n2)cc(-c2nn[nH]c2C#N)c1 [Example 22, 5-[3-methyl-5-(4-trifluoromethyl-pyrimidin-2-yl)-phenyl]-3H-[1,2,3]triazole-4-carbonitrile] | −108.5 | 0.65 | – |
| N#Cc1[nH]nnc1-c1cc(Cl)cc(-c2nccc(C(F)(F)F)n2)c1 [Example 23, 5-[3-chloro-5-(4-trifluoromethyl-pyrimidin-2-yl)-phenyl]-3H-[1,2,3]triazole-4-carbonitrile] | −137.0 | 0.45 | – |
| N#Cc1[nH]nnc1-c1cc(Cl)cc(-c2ccc(OC(F)(F)F)cc2)c1 [Example 29, 5-(5-chloro-4′-trifluoromethoxy-biphenyl-3-yl)-3H-[1,2,3]triazole-4-carbonitrile] | −37.3 | 0.68 | – |
| N#Cc1ccc(/C=C/c2cccc(-c3nn[nH]c3C#N)c2)cc1 [Example 41, 5-{3-[(E)-2-(4-cyano-phenyl)-vinyl]-phenyl}-3H-[1,2,3]triazole-4-carbonitrile] | −158.0 | 0.39 | – |
| N#Cc1[nH]nnc1-c1cc(Cl)cc(/C=C/c2cccc(C(F)(F)F)c2)c1 [Example 47, 5-{3-chloro-5-[(E)-2-(3-trifluoromethyl-phenyl)-vinyl]-phenyl}-3H-[1,2,3]triazole-4-carbonitrile] | −89.7 | 1.07 | – |
| N#Cc1[nH]nnc1-c1cccc(/C=C/c2cncc(C(F)(F)F)c2)c1 [Example 49, 5-{3-[(E)-2-(5-trifluoromethyl-pyridin-3-yl)-vinyl]-phenyl}-3H-[1,2,3]triazole-4-carbonitrile] | −78.7 | 0.48 | – |
| N#Cc1[nH]nnc1-c1cccc(/C=C/c2cc(C(F)(F)F)ccn2)c1 [Example 50, 5-{3-[(E)-2-(4-trifluoromethyl-pyridin-2-yl)-vinyl]-phenyl}-3H-[1,2,3]triazole-4-carbonitrile] | −120.0 | 0.44 | – |
| N#Cc1[nH]nnc1-c1cc(/C=C/c2cccc(C(F)(F)F)n2)cc(C(F)(F)F)c1 [Example 51, 5-{3-trifluoromethyl-5-[(E)-2-(6-trifluoromethyl-pyridin-2-yl)-vinyl]-phenyl}-3H-[1,2,3]triazole-4-carbonitrile] | −79.0 | 0.76 | – |
| N#Cc1[nH]nnc1-c1cccc(/C=C/c2nccc(C(F)(F)F)n2)c1 [Example 52, 5-{3-[(E)-2-(4-trifluoromethyl-pyrimidin-2-yl)-vinyl]-phenyl}-3H-[1,2,3]triazole-4-carbonitrile] | −120.4 | 0.58 | – |
| Cc1sc(-c2ccc(C(F)(F)F)cc2)nc1-c1nn(C(C)OC(=O)OCC(C)(C)C(=O)O)nc1C#N (centres unmarked) [Example 1820, 3-(1-{4-cyano-5-[5-methyl-2-(4-trifluoromethyl-phenyl)-thiazol-4-yl]-2H-[1,2,3]triazol-2-yl}-ethoxycarbonyloxy)-2,2-dimethyl-propionic acid] | – | – | −77.0 |
| CC(C)c1oc(-c2ccc(Cl)cc2)nc1-c1nn(C(C)OC(=O)OCC(C)(C)C(=O)O)nc1C#N (centres unmarked) [Example 1822, 3-(1-{4-[2-(4-chloro-phenyl)-5-isopropyl-oxazol-4-yl]-5-cyano-2H-[1,2,3]triazol-2-yl}-ethoxycarbonyloxy)-2,2-dimethyl-propionic acid] | – | – | −36.0 |
| Cc1sc(-c2ccc(F)c(Cl)c2)nc1-c1nn(C(C)OC(=O)OCC(C)(C)C(=O)O)nc1C#N (centres unmarked) [Example 1823, 3-(1-{4-[2-(3-chloro-4-fluoro-phenyl)-5-methyl-thiazol-4-yl]-5-cyano-2H-[1,2,3]triazol-2-yl}-ethoxycarbonyloxy)-2,2-dimethyl-propionic acid] | – | – | −63.3 |
| Cc1cc(-c2ccc(C(F)(F)F)nc2)cc(-c2nn(C(C)OC(=O)OCC(C)(C)C(=O)O)nc2C#N)c1 (centres unmarked) [Example 1825, 3-(1-{4-cyano-5-[3-methyl-5-(6-trifluoromethyl-pyridin-3-yl)-phenyl]-2H-[1,2,3]triazol-2-yl}-ethoxycarbonyloxy)-2,2-dimethyl-propionic acid] | – | – | −48.3 |
| CC(OC(=O)OC(C)(C)CC(=O)O)n1nc(C#N)c(-c2cccc(OCc3cc(C(F)(F)F)ccc3C(F)(F)F)c2)n1 (centres unmarked) [Example 1827, 3-(1-{4-[3-(2,5-bis-trifluoromethylbenzyloxy)phenyl]-5-cyano-2H-[1,2,3]triazol-2-yl}ethoxycarbonyloxy)-3-methylbutyric acid] | – | – | −82.5 |
| CC(OC(=O)OCCO)n1nc(C#N)c(-c2cccc(OCc3cc(C(F)(F)F)ccc3C(F)(F)F)c2)n1 (centres unmarked) [Example 1828, carbonic acid 1-{4-[3-(2,5-bis-trifluoromethylbenzyloxy)phenyl]-5-cyano-2H-[1,2,3]triazol-2-yl}ethyl ester-2-hydroxyethyl ester] | – | – | −69.3 |
| CC(=O)OCn1nc(C#N)c(-c2cc(C)cc(-c3nccc(C(F)(F)F)n3)c2)n1 [Example 1829, acetic acid 4-cyano-5-[3-methyl-5-(4-trifluoromethylpyrimidin-2-yl)phenyl]-2H-[1,2,3]triazol-2-ylmethyl ester] | – | – | −93.7 |
| CC(=O)OCn1nc(C#N)c(-c2cc(Cl)cc(/C=C/c3cccc(C(F)(F)F)c3)c2)n1 [Example 1830, acetic acid 4-{3-chloro-5-[(E)-2-(3-trifluoromethylphenyl)vinyl]phenyl}-5-cyano-2H-[1,2,3]triazol-2-ylmethyl ester] | – | – | −52.5 |
| CCCC(=O)OCn1nc(C#N)c(-c2cc(Cl)cc(/C=C/c3cccc(C(F)(F)F)c3)c2)n1 [Example 1831] | – | – | −61.0 |
